# In ChEMBL document CHEMBL4507261, “Data for DCP probe A-192621” (2021):
# Tests used:
# Endothelin-1 receptor = target: T1, Endothelin-1 receptor (Homo sapiens, UniProt P25101); test: EDNRA- dependent phosphatidylinositol hydrolysis assay; assay type: functional
# T1 sequence (P25101 whole entry): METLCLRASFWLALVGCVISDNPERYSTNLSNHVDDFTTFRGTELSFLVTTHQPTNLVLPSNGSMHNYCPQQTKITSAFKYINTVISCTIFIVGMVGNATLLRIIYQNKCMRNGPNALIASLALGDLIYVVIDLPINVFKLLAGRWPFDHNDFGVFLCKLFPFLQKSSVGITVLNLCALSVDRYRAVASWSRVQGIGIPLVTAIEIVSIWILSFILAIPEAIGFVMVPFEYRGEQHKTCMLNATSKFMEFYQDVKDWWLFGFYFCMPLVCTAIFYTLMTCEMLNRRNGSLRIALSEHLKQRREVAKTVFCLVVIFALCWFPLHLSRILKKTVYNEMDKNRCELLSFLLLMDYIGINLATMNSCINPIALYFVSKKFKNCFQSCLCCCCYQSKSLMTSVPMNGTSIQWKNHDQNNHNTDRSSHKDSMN
# [1] = target: 5-hydroxytryptamine receptor 1B (Homo sapiens) (UniProt P28222); conditions: Compound concentration 10.0 uM
# [2] = target: 5-hydroxytryptamine receptor 1D (Homo sapiens) (UniProt P28221); conditions: Compound concentration 10.0 uM
# [3] = target: 5-hydroxytryptamine receptor 2B (Homo sapiens) (UniProt P41595); conditions: Compound concentration 10.0 uM
# [4] = target: T2, 5-hydroxytryptamine receptor 3A (Homo sapiens) (UniProt P46098); conditions: Compound concentration 10.0 uM
# T2 sequence (whole entry): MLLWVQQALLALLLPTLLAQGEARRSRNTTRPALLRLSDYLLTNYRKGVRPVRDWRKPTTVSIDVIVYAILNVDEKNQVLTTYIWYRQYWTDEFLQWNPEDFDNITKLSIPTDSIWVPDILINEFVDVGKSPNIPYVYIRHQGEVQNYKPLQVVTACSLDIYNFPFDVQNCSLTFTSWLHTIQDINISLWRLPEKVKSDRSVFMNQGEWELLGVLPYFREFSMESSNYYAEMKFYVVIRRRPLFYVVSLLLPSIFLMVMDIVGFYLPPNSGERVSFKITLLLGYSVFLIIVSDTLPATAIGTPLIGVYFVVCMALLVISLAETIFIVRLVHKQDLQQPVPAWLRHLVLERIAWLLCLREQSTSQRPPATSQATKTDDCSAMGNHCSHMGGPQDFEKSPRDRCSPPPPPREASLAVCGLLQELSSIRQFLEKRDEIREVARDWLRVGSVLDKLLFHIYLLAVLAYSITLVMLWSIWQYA
# [5] = target: 5-hydroxytryptamine receptor 5A (Homo sapiens) (UniProt P47898); conditions: Compound concentration 10.0 uM
# [6] = target: Mu-type opioid receptor (Homo sapiens) (UniProt P35372); conditions: Compound concentration 10.0 uM
# [7] = target: GABA-A receptor; anion channel (Rattus norvegicus) (UniProt O09028+P15431+P18506+P18508+P19969+P20236+P23574+P23576+P28471+P28473+P30191+P62813+P63079+P63138+Q91ZM7+Q9ES14); conditions: Compound concentration 10.0 uM
# [8] = target: Histamine H1 receptor (Homo sapiens) (UniProt P35367); conditions: Compound concentration 10.0 uM
# [9] = target: Histamine H4 receptor (Homo sapiens) (UniProt Q9H3N8); conditions: Compound concentration 10.0 uM
# [10] = target: T3, Alpha-1B adrenergic receptor (Homo sapiens) (UniProt P35368); conditions: Compound concentration 10.0 uM
# T3 sequence (whole entry): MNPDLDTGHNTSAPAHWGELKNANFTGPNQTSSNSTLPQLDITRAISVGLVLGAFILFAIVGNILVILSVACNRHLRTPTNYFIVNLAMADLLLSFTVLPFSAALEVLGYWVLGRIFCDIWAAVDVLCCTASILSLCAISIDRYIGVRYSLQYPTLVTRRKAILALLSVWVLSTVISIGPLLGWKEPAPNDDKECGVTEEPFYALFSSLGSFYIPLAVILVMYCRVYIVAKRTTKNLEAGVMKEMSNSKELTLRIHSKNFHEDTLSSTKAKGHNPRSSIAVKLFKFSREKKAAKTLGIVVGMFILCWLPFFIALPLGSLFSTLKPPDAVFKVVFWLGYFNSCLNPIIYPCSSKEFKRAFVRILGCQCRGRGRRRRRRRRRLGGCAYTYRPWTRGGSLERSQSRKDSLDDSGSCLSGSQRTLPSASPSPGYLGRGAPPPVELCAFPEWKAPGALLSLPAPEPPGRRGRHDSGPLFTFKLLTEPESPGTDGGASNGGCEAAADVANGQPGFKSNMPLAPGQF
# [11] = target: Muscarinic acetylcholine receptor M3 (Homo sapiens) (UniProt P20309); conditions: Compound concentration 10.0 uM
# [12] = target: T4, Muscarinic acetylcholine receptor M5 (Homo sapiens) (UniProt P08912); conditions: Compound concentration 10.0 uM
# T4 sequence (whole entry): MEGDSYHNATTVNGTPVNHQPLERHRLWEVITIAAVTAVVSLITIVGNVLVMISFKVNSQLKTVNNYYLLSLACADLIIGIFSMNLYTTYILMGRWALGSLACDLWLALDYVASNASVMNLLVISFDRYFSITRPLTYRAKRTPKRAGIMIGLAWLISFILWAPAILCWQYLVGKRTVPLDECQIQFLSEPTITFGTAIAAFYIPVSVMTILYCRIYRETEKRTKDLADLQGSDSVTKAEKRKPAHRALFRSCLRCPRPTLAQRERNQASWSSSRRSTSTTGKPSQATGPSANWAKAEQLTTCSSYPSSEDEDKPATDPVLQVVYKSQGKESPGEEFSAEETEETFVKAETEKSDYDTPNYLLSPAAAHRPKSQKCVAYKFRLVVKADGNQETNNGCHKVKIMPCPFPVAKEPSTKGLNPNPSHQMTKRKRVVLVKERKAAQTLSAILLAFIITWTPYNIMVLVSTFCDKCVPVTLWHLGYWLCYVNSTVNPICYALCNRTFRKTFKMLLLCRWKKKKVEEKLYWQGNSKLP
# [13] = target: Alpha-1D adrenergic receptor (Homo sapiens) (UniProt P25100); conditions: Compound concentration 10.0 uM
# [14] = target: Sigma intracellular receptor 2 (Homo sapiens) (UniProt Q5BJF2); conditions: Compound concentration 10.0 uM
# [15] = target: Sigma non-opioid intracellular receptor 1 (Homo sapiens) (UniProt Q99720); conditions: Compound concentration 10.0 uM
# Chain of Sigma non-opioid intracellular receptor 1 (Homo sapiens) (Q99720 whole entry): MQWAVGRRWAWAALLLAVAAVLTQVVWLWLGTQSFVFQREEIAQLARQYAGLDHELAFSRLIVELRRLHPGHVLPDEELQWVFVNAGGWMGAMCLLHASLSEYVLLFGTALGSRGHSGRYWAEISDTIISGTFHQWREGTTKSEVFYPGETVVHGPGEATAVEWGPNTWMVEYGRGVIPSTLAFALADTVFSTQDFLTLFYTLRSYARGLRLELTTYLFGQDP
# Chain of 5-hydroxytryptamine receptor 2B (Homo sapiens) (P41595 whole entry): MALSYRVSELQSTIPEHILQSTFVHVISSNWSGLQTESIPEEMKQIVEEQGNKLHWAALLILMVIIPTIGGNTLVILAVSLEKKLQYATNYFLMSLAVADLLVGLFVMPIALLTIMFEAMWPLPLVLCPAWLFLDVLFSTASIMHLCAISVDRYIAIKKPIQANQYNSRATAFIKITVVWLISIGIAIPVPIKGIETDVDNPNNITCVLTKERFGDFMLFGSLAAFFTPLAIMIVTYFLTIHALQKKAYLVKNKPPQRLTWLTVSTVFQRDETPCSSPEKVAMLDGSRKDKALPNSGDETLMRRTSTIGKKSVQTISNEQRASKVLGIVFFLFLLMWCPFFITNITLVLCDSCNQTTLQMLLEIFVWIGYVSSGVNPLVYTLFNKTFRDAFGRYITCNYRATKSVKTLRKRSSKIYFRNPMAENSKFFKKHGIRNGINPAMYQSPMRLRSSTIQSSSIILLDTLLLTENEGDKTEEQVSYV
# Chain of Sigma intracellular receptor 2 (Homo sapiens) (Q5BJF2 whole entry): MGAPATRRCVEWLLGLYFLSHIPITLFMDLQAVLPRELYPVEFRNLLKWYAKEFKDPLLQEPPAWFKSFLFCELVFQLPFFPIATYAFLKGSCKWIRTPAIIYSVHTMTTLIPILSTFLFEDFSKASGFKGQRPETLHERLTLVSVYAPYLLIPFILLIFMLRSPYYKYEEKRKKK
# Chain of Histamine H4 receptor (Homo sapiens) (Q9H3N8 whole entry): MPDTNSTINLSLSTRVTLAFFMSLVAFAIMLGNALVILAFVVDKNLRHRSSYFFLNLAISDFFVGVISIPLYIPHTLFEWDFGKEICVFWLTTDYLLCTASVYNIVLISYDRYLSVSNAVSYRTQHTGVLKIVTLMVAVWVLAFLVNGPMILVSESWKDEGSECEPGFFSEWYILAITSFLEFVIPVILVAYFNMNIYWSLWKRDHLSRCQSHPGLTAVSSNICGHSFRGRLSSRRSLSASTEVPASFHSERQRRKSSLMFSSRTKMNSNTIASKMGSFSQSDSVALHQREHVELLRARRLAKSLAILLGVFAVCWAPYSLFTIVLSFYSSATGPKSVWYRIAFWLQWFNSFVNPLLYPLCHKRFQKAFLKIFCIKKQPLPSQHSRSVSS
# Chain of Muscarinic acetylcholine receptor M3 (Homo sapiens) (P20309 whole entry, looked up): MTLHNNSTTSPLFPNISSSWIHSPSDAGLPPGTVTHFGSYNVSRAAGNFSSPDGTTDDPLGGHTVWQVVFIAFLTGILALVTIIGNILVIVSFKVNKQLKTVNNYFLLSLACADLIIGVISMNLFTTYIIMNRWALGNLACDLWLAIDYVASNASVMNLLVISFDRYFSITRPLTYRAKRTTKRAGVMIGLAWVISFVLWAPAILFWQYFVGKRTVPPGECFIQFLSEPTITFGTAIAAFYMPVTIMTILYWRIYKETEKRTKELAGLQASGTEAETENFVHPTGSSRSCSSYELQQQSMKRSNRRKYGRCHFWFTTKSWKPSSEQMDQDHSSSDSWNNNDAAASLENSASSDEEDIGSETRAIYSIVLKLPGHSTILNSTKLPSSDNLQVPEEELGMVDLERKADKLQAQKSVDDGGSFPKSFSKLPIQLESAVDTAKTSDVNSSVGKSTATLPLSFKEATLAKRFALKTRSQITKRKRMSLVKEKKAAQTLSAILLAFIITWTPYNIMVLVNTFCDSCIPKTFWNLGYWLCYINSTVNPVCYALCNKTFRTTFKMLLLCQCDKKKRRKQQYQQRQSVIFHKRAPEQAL
# Chain of 5-hydroxytryptamine receptor 5A (Homo sapiens) (P47898 whole entry): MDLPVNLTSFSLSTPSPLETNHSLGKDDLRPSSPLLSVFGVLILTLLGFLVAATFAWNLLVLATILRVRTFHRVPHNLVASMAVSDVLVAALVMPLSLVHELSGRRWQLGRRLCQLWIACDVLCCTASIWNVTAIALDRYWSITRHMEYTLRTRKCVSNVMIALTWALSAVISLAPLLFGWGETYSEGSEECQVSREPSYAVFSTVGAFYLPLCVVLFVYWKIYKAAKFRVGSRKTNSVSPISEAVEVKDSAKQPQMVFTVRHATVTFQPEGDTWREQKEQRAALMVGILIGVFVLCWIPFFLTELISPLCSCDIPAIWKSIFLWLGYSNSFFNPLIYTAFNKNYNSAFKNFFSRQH
# Chain of Mu-type opioid receptor (Homo sapiens) (P35372 whole entry): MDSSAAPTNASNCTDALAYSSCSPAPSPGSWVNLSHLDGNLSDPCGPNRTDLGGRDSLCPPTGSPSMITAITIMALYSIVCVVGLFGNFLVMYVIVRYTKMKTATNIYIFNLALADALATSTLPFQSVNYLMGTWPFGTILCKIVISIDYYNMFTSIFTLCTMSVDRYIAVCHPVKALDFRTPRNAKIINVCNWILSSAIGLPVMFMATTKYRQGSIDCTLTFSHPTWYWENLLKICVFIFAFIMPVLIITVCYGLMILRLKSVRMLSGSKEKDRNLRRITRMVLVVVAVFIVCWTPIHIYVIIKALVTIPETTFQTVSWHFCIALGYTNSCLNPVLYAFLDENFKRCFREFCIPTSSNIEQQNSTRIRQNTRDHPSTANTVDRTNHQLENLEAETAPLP
# Chain of 5-hydroxytryptamine receptor 1B (Homo sapiens) (P28222 whole entry): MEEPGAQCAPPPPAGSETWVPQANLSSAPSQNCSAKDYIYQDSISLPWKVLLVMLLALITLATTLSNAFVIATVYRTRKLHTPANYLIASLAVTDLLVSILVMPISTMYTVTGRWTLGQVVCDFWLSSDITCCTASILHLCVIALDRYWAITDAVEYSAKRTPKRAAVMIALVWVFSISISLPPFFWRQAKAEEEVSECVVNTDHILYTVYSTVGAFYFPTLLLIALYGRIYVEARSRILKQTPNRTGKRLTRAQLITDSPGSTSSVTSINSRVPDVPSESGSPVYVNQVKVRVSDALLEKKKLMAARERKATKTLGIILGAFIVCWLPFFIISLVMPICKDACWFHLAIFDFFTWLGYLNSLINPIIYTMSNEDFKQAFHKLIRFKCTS
# Chain of Histamine H1 receptor (Homo sapiens) (P35367 whole entry): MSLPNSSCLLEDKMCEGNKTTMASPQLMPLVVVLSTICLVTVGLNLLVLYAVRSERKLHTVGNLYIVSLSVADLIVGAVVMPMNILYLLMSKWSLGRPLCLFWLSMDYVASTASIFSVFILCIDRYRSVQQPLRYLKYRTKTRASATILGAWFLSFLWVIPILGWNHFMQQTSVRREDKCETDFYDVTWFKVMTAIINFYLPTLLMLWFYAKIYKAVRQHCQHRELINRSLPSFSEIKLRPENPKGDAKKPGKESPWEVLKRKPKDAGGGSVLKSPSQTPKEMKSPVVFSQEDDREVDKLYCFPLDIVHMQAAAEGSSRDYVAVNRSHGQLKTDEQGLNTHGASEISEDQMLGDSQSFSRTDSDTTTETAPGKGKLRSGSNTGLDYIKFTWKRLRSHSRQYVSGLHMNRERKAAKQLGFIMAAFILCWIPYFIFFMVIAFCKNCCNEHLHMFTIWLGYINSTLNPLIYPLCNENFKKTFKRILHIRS
# Chain of 5-hydroxytryptamine receptor 1D (Homo sapiens) (P28221 whole entry): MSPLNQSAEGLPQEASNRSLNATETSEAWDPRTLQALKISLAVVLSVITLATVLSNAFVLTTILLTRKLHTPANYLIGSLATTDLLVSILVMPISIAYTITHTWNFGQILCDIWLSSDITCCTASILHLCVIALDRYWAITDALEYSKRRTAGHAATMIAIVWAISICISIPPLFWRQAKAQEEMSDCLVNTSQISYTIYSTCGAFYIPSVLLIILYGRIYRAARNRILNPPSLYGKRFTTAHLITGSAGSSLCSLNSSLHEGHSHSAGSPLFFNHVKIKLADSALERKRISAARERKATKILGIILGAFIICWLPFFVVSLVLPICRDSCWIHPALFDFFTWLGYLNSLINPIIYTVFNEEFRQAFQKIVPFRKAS
# Chain of Alpha-1D adrenergic receptor (Homo sapiens) (P25100 whole entry): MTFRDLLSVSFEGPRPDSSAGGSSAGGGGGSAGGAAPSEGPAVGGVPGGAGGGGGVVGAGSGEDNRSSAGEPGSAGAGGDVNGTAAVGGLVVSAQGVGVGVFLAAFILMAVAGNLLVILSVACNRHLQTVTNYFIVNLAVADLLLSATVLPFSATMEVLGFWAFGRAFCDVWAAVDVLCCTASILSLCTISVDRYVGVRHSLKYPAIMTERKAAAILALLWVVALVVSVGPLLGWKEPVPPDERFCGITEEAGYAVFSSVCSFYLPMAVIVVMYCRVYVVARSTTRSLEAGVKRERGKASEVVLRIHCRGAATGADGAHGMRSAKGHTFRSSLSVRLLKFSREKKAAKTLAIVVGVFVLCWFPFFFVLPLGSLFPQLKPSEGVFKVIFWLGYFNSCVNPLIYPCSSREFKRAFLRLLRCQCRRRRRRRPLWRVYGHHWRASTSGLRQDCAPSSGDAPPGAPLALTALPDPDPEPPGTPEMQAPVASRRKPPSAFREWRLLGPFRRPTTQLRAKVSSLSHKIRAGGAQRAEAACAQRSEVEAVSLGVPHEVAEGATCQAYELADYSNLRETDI
structure (smiles),measurement,setting,value
CCCOc1ccc([C@H]2[C@H](C(=O)O)[C@@H](c3ccc4c(c3)OCO4)CN2CC(=O)Nc2c(CC)cccc2CC)cc1 [A-192621],IC50,Endothelin-1 receptor,> 1000 nM (not active)
same,inhibition,[1],4.31%
same,inhibition,[2],-3.09%
same,inhibition,[3],12.8%
same,inhibition,[4],-5.22%
same,inhibition,[5],-0.22%
same,inhibition,[6],6.79%
same,inhibition,[7],19.6%
same,inhibition,[8],36%
same,inhibition,[9],7.94%
same,inhibition,[10],-2.22%
same,inhibition,[11],-5.06%
same,inhibition,[12],27.3%
same,inhibition,[13],-1.79%
same,inhibition,[14],-7.1%
same,inhibition,[15],4.29%
